Values after ≈ are worked out from the molar mass of the structure shown.
Assays:
[1] = system: H9 (acute lymphoblastic leukemia, ALL); assay: Leukemia cell growth inhibition, MTT, 72 h (Example 5); type: cell-based, human; details: Homo sapiens; 72 h, MTT
Outline: (§1)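 Seed 6000 leukemia cells per well in 1640 medium containing 10% FBS. Add test compounds at different concentrations, mix, incubate 72 hours at 37° C in 5% CO2. Determine viable cells by MTT.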

[2] = system: Jurkat (acute lymphoblastic leukemia, ALL); assay: as above; type: cell-based, human; details: Homo sapiens, Jurkat; 72 h, MTT
Outline: as §1

[3] = system: K562/adr (drug-resistant, chronic myeloid leukemia, CML); assay: as above; type: cell-based, human; details: Homo sapiens, K562/Adr; 72 h, MTT
Outline: as §1

[4] = system: Kasumi-1 (acute myeloid leukemia M2 type, AML-M2); assay: as above; type: cell-based, human; details: Homo sapiens, Kasumi 1
Outline: as §1

[5] = system: NB4 (acute promyelocytic leukemia, AML); assay: as above; type: cell-based, human; details: Homo sapiens; 72 h, MTT
Outline: as §1

[6] = system: RPMI8226 (multiple myeloma); assay: Multiple myeloma cell growth inhibition, MTT, 72 h (Example 6); type: cell-based, human; details: Homo sapiens, RPMI-8226; 72 h, MTT, RPMI8226
Outline: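 Viability was read by MTT after 72 h of compound exposure at 37 °C, 5% CO2. Each well held 6000 RPMI8226 cells in 1640 medium containing 10% fetal bovine serum, with derivatives added at various concentrations.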

[7] = system: CaES-17 (esophageal cancer cell); assay: Solid tumor cell growth inhibition, MTT, 72 h (Example 7); type: cell-based, human; details: Homo sapiens, CaEs17; 72 h, MTT, CAES-17
Outline: (§2)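 Each line is plated at 4000 cells per well in high-glucose DMEM supplemented with 10% FBS. After 24 h settling, derivatives at several concentrations are mixed in and cultured 72 h; MTT then gives viable cells, with untreated wells set to 100%.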

[8] = system: Hep-2 (laryngeal carcinoma); assay: as above; type: cell-based, human; details: Homo sapiens; 72 h, MTT, Hep 2
Outline: as §2

MG63 (osteosarcoma) = assay: as above; type: cell-based, human; details: Homo sapiens; 72 h, MTT, MG-63
Outline: as §2

[9] = system: PANC-1 (pancreatic cancer); assay: as above; type: cell-based, human; details: Homo sapiens; 72 h, MTT, PANC-1
Outline: as §2

PC-3 (prostate cancer) = assay: as above; type: cell-based, human; details: Homo sapiens; 72 h, MTT, PC-3
Outline: as §2

A549 (human lung cancer) = assay: as above; type: cell-based; details: Homo sapiens; 72 h, MTT, A549
Outline: as §2

[10] = system: Becap37 (human breast cancer cell); assay: as above; type: cell-based; details: Homo sapiens; 72 h, MTT, Becap-37
Outline: as §2

[11] = system: CNE (nasopharyngeal carcinoma cell); assay: as above; type: cell-based; details: Homo sapiens
Outline: as §2

[12] = system: Hela (human cervical cancer cell); assay: as above; type: cell-based; details: Homo sapiens; 72 h, MTT, Hela
Outline: as §2

[13] = system: Huh7 (human liver cancer cell); assay: as above; type: cell-based; details: Homo sapiens; 72 h, MTT, Huh-7
Outline: as §2

[14] = system: MGC 803 (human gastric cancer cell); assay: as above; type: cell-based; details: Homo sapiens
Outline: as §2

[15] = system: RKO (human colon adenocarcinoma cell); assay: as above; type: cell-based; details: Homo sapiens; 72 h, MTT, RKO
Outline: as §2

[16] = system: SK-OV-3 (ovarian cancer cell); assay: as above; type: cell-based; details: Homo sapiens
Outline: as §2

[17] = system: U87 MG (malignant glioma cell); assay: as above; type: cell-based; details: Homo sapiens, U-87 MG
Outline: as §2

Structure (SMILES)	IC50 [1]	IC90 [1]	IC50 [2]	IC90 [2]	IC50 [3]	IC90 [3]	IC50 [4]	IC90 [4]	IC50 [5]	IC90 [5]	IC50 [6]	IC90 [6]	IC50 [7]	IC90 [7]	IC50 [8]	IC90 [8]	IC50 (MG63 (osteosarcoma))	IC90 (MG63 (osteosarcoma))	IC50 [9]	IC90 [9]	other results
COc1ccc2cc1Oc1ccc(cc1)C[C@H]1c3cc(c(OC)cc3CCN1C)Oc1c(OC)c(OC)c(CN3CCSCC3)c3c1[C@H](C2)N(C)CC3 [BS-TE-328]	1.54 µg/mL (≈ 2.09 µM)	3.15 µg/mL (≈ 4.27 µM)	2.09 µg/mL (≈ 2.83 µM)	8 µg/mL (≈ 10.8 µM)	1.46 µg/mL (≈ 1.98 µM)	5.12 µg/mL (≈ 6.94 µM)	0.84 µg/mL (≈ 1.14 µM)	3.76 µg/mL (≈ 5.1 µM)	1.8 µg/mL (≈ 2.44 µM)	4.4 µg/mL (≈ 5.96 µM)	0.15 µg/mL (≈ 0.203 µM)	0.96 µg/mL (≈ 1.3 µM)	3.13 µg/mL (≈ 4.24 µM)	12.2 µg/mL (≈ 16.5 µM)	9.63 µg/mL (≈ 13 µM)	15.9 µg/mL (≈ 21.5 µM)	2.1 µg/mL (≈ 2.85 µM)	3.9 µg/mL (≈ 5.28 µM)	2.99 µg/mL (≈ 4.05 µM)	7.15 µg/mL (≈ 9.69 µM)	IC50 (PC-3 (prostate cancer)): 3.07 µg/mL (≈ 4.16 µM); IC90 (PC-3 (prostate cancer)): 4.98 µg/mL (≈ 6.75 µM); IC50 (A549 (human lung cancer)): 3.7 µg/mL (≈ 5.01 µM); IC90 (A549 (human lung cancer)): 9.9 µg/mL (≈ 13.4 µM); IC50 [10]: 2 µg/mL (≈ 2.71 µM); IC90 [10]: 4 µg/mL (≈ 5.42 µM); IC50 [11]: 6.02 µg/mL (≈ 8.16 µM); IC90 [11]: > 16 µg/mL; IC50 [12]: 2.49 µg/mL (≈ 3.37 µM); IC90 [12]: 4.91 µg/mL (≈ 6.65 µM); IC50 [13]: 1.52 µg/mL (≈ 2.06 µM); IC90 [13]: 3.7 µg/mL (≈ 5.01 µM); IC50 [14]: 1.68 µg/mL (≈ 2.28 µM); IC90 [14]: 4 µg/mL (≈ 5.42 µM); IC50 [15]: 1.76 µg/mL (≈ 2.38 µM); IC90 [15]: 3 µg/mL (≈ 4.07 µM); IC50 [16]: 6.8 µg/mL (≈ 9.21 µM); IC90 [16]: > 16 µg/mL; IC50 [17]: 1.44 µg/mL (≈ 1.95 µM); IC90 [17]: 5.39 µg/mL (≈ 7.3 µM)
CCN1CCN(Cc2c3c4c(c(OC)c2OC)Oc2cc5c(cc2OC)CCN(C)[C@H]5Cc2ccc(cc2)Oc2cc(ccc2OC)C[C@@H]4N(C)CC3)CC1 [BS-TE-342]	1.11 µg/mL (≈ 1.48 µM)	2.32 µg/mL (≈ 3.1 µM)	0.8 µg/mL (≈ 1.07 µM)	4.05 µg/mL (≈ 5.41 µM)	0.55 µg/mL (≈ 0.734 µM)	2.15 µg/mL (≈ 2.87 µM)	0.75 µg/mL (≈ 1 µM)	3.1 µg/mL (≈ 4.14 µM)	0.6 µg/mL (≈ 0.801 µM)	1.6 µg/mL (≈ 2.14 µM)	0.006 µg/mL (≈ 0.00801 µM)	0.45 µg/mL (≈ 0.601 µM)	2.21 µg/mL (≈ 2.95 µM)	12.4 µg/mL (≈ 16.5 µM)	1.86 µg/mL (≈ 2.48 µM)	7.19 µg/mL (≈ 9.6 µM)	0.9 µg/mL (≈ 1.2 µM)	1.9 µg/mL (≈ 2.54 µM)	1.92 µg/mL (≈ 2.56 µM)	6.84 µg/mL (≈ 9.13 µM)	IC50 (PC-3 (prostate cancer)): 1.79 µg/mL (≈ 2.39 µM); IC90 (PC-3 (prostate cancer)): 2.4 µg/mL (≈ 3.2 µM); IC50 (A549 (human lung cancer)): 3.2 µg/mL (≈ 4.27 µM); IC90 (A549 (human lung cancer)): 16 µg/mL (≈ 21.4 µM); IC50 [10]: 1.1 µg/mL (≈ 1.47 µM); IC90 [10]: 4.5 µg/mL (≈ 6.01 µM); IC50 [11]: 1.6 µg/mL (≈ 2.14 µM); IC90 [11]: 3.7 µg/mL (≈ 4.94 µM); IC50 [12]: 1.69 µg/mL (≈ 2.26 µM); IC90 [12]: 4.1 µg/mL (≈ 5.47 µM); IC50 [13]: 1.31 µg/mL (≈ 1.75 µM); IC90 [13]: 2.46 µg/mL (≈ 3.28 µM); IC50 [14]: 1.38 µg/mL (≈ 1.84 µM); IC90 [14]: 6.55 µg/mL (≈ 8.75 µM); IC50 [15]: 0.69 µg/mL (≈ 0.921 µM); IC90 [15]: 1.75 µg/mL (≈ 2.34 µM); IC50 [16]: 2 µg/mL (≈ 2.67 µM); IC90 [16]: > 16 µg/mL; IC50 [17]: 0.3 µg/mL (≈ 0.401 µM); IC90 [17]: 1.16 µg/mL (≈ 1.55 µM)
COc1ccc2cc1Oc1ccc(cc1)C[C@H]1c3cc(c(OC)cc3CCN1C)Oc1c(OC)c(OC)c(CN3CCC(C#N)CC3)c3c1[C@H](C2)N(C)CC3 [BS-TE-323]	0.95 µg/mL (≈ 1.28 µM)	2.13 µg/mL (≈ 2.86 µM)	1.28 µg/mL (≈ 1.72 µM)	9 µg/mL (≈ 12.1 µM)	0.21 µg/mL (≈ 0.282 µM)	2.16 µg/mL (≈ 2.9 µM)	1.23 µg/mL (≈ 1.65 µM)	4.6 µg/mL (≈ 6.18 µM)	1.5 µg/mL (≈ 2.01 µM)	4.5 µg/mL (≈ 6.04 µM)	0.12 µg/mL (≈ 0.161 µM)	3.88 µg/mL (≈ 5.21 µM)	3.6 µg/mL (≈ 4.83 µM)	23 µg/mL (≈ 30.9 µM)	2.49 µg/mL (≈ 3.34 µM)	5.59 µg/mL (≈ 7.5 µM)	2.6 µg/mL (≈ 3.49 µM)	5.5 µg/mL (≈ 7.38 µM)	2.46 µg/mL (≈ 3.3 µM)	7.1 µg/mL (≈ 9.53 µM)	IC50 (PC-3 (prostate cancer)): 1.88 µg/mL (≈ 2.52 µM); IC90 (PC-3 (prostate cancer)): 3.83 µg/mL (≈ 5.14 µM); IC50 (A549 (human lung cancer)): 6.2 µg/mL (≈ 8.32 µM); IC90 (A549 (human lung cancer)): 16 µg/mL (≈ 21.5 µM); IC50 [10]: 3.2 µg/mL (≈ 4.3 µM); IC90 [10]: 8 µg/mL (≈ 10.7 µM); IC50 [11]: 4.8 µg/mL (≈ 6.44 µM); IC90 [11]: 10.4 µg/mL (≈ 14 µM); IC50 [12]: 1.2 µg/mL (≈ 1.61 µM); IC90 [12]: 3.89 µg/mL (≈ 5.22 µM); IC50 [13]: 1.33 µg/mL (≈ 1.79 µM); IC90 [13]: 3.88 µg/mL (≈ 5.21 µM); IC50 [14]: 3.04 µg/mL (≈ 4.08 µM); IC90 [14]: 8 µg/mL (≈ 10.7 µM); IC50 [15]: 1.07 µg/mL (≈ 1.44 µM); IC90 [15]: 2.6 µg/mL (≈ 3.49 µM); IC50 [16]: 8 µg/mL (≈ 10.7 µM); IC90 [16]: > 16 µg/mL; IC50 [17]: 0.98 µg/mL (≈ 1.32 µM); IC90 [17]: 4.02 µg/mL (≈ 5.4 µM)
